Laboratory results published in PubChem BioAssay (NCI).
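Interpolation was linear, between the two tested concentrations surrounding the appropriate level; five concentrations were tested over 48 hours in 96-well plates. GI50 = concentration required for 50% inhibition of growth. TGI: total growth inhibition.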

Assays:
Experiment in all cases: growth of human tumour cells (NCI), 48 h
OVCAR-8 ovarian = tested on: OVCAR-8 ovarian
786-0 renal = tested on: 786-0 renal
MCF7 breast = tested on: MCF7 breast
NCI-H226 lung = tested on: NCI-H226 lung
SN12C renal = tested on: SN12C renal
UACC-62 melanoma = tested on: UACC-62 melanoma
M14 melanoma = tested on: M14 melanoma
MDA-MB-468 breast = tested on: MDA-MB-468 breast
K-562 leukemia = tested on: K-562 leukemia
OVCAR-5 ovarian = tested on: OVCAR-5 ovarian
TK-10 renal = tested on: TK-10 renal
OVCAR-3 ovarian = tested on: OVCAR-3 ovarian
PC-3 prostate = tested on: PC-3 prostate
U251 CNS = tested on: U251 CNS
DU-145 prostate = tested on: DU-145 prostate
MALME-3M melanoma = tested on: MALME-3M melanoma
SK-OV-3 ovarian = tested on: SK-OV-3 ovarian
IGROV1 ovarian = tested on: IGROV1 ovarian
CAKI-1 renal = tested on: CAKI-1 renal
BT-549 breast = tested on: BT-549 breast
SF-539 CNS = tested on: SF-539 CNS
UACC-257 melanoma = tested on: UACC-257 melanoma
NCI-H23 lung = tested on: NCI-H23 lung
HS 578T breast = tested on: HS 578T breast
NCI/ADR-RES ovarian = tested on: NCI/ADR-RES ovarian
SK-MEL-5 melanoma = tested on: SK-MEL-5 melanoma
A549 NSCLC = tested on: A549 NSCLC
CCRF-CEM leukemia = tested on: CCRF-CEM leukemia

Structure (SMILES): Cn1cc(-c2cc(N)n3nc(-c4c[nH]c5ccccc45)cc3n2)c2cc(Br)cnc21
- TGI (OVCAR-8 ovarian): 15.2 µM
- GI50 (786-0 renal): 1.81 µM
- TGI (786-0 renal): 3.45 µM
- GI50 (MCF7 breast): 1.95 µM
- TGI (MCF7 breast): 4.58 µM
- GI50 (NCI-H226 lung): 3.29 µM
- TGI (NCI-H226 lung): 16.3 µM
- GI50 (SN12C renal): 5.02 µM
- TGI (SN12C renal): 21.1 µM
- GI50 (UACC-62 melanoma): 1.66 µM
- TGI (UACC-62 melanoma): 3.28 µM
- GI50 (M14 melanoma): 1.91 µM
- TGI (M14 melanoma): 3.87 µM
- GI50 (MDA-MB-468 breast): 2.23 µM
- TGI (MDA-MB-468 breast): 5.42 µM
- GI50 (K-562 leukemia): 2.88 µM
- TGI (K-562 leukemia): > 100 µM
- GI50 (OVCAR-5 ovarian): 1.82 µM
- TGI (OVCAR-5 ovarian): 4.94 µM
- GI50 (TK-10 renal): 2.69 µM
- TGI (TK-10 renal): 6.3 µM
- GI50 (OVCAR-3 ovarian): 1.74 µM
- TGI (OVCAR-3 ovarian): 3.37 µM
- GI50 (PC-3 prostate): 2.41 µM
- TGI (PC-3 prostate): 7.91 µM
- GI50 (U251 CNS): 2.02 µM
- TGI (U251 CNS): 4.53 µM
- GI50 (DU-145 prostate): 3.58 µM
- TGI (DU-145 prostate): 12.2 µM
- GI50 (MALME-3M melanoma): 2.14 µM
- TGI (MALME-3M melanoma): 4.52 µM
- GI50 (SK-OV-3 ovarian): 5.91 µM
- TGI (SK-OV-3 ovarian): 34.8 µM
- GI50 (IGROV1 ovarian): 3.29 µM
- TGI (IGROV1 ovarian): 13.2 µM
- GI50 (CAKI-1 renal): 1.69 µM
- TGI (CAKI-1 renal): 3.87 µM
- GI50 (BT-549 breast): 4.1 µM
- TGI (BT-549 breast): 18 µM
- GI50 (SF-539 CNS): 1.67 µM
- TGI (SF-539 CNS): 3.11 µM
- GI50 (UACC-257 melanoma): 3.5 µM
- TGI (UACC-257 melanoma): 18.4 µM
- GI50 (NCI-H23 lung): 1.87 µM
- TGI (NCI-H23 lung): 4.16 µM
- GI50 (HS 578T breast): 2.61 µM
- TGI (HS 578T breast): 14.9 µM
- GI50 (NCI/ADR-RES ovarian): 2.21 µM
- TGI (NCI/ADR-RES ovarian): 5.16 µM
- GI50 (SK-MEL-5 melanoma): 3.46 µM
- TGI (SK-MEL-5 melanoma): 13.9 µM
- GI50 (A549 NSCLC): 2.78 µM
- TGI (A549 NSCLC): 11.1 µM
- GI50 (CCRF-CEM leukemia): 3.71 µM
- TGI (CCRF-CEM leukemia): > 100 µM
